Reference: patent EP0656355A1, “BIPHENYLMETHANE DERIVATIVE AND MEDICINE CONTAINING THE SAME” (WAKUNAGA SEIYAKU KABUSHIKI KAISHA, priority 1992, dated 1994)

What was measured:
[1] = target: T1, angiotensin II (AII) receptor (Rattus norvegicus, UniProt P25095); assay: Inhibitory action against the binding with angiotensin II (AII) receptor, 125I-AII competition on cultured rat aortic smooth muscle cells; set-up: species or system male Wistar rat; settings: 50% substitution of ¹²⁵I-AII specific binding; ¹²⁵I-AII 2 x 10⁻¹⁰M; one hour at room temperature; rat vascular smooth muscle cells; read-out: IC₅₀
T1 construct: Vascular smooth muscle cells, which had been separated from the aorta of a male Wistar rat and cultured on a 24-well multiplate; endogenous in cells; host or cells: primary cultured vascular smooth muscle cells from the aorta of a male Wistar rat
T1 sequence (P25095 1-359): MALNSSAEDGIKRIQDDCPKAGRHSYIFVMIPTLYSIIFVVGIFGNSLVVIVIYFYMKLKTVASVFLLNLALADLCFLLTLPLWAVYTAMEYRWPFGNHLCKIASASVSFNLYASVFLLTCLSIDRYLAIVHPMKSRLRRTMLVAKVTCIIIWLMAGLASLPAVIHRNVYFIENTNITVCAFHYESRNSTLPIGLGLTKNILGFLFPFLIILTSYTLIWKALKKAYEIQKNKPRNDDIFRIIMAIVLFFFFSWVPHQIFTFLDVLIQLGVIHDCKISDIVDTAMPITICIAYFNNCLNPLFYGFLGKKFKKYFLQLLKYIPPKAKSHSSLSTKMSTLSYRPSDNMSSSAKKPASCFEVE
Method: (1) Inhibitory action against the binding with angiotensin II (AII) receptor, using cultured rat aortic smooth muscle cells The present test was conducted in accordance with the method reported by Chiu et al. in European Journal of Pharmacology, 157, 13-21(1988), though after some modifications. […] To each well, ¹²⁵I-AII (final concentration: 2 x 10⁻¹⁰M) was added together with or without a test compound to give a total volume of 0.2 mℓ. Then the wells were incubated for one hour at room temperature to make the ¹²⁵I-AII and the test compound competitively bind to the vascular smooth muscle cells. Each well was thereafter washed with an ice-cold buffer three times to remove unbound ¹²⁵I-AII. To the cells, 0.2 mℓ of a 1 mol/ℓ solution of sodium hydroxide was added to solubilize the bound ¹²⁵I-AII. A bound amount of ¹²⁵I-AII contained in the resulting cell solution was measured by a gamma counter. The above test was conducted for each compound at different concentrations of 3 doses or more. The inhibition rate against the specific binding with ¹²⁵I-AII at each concentration was calculated in accordance with an equation to be set out subsequently herein.

[2] = system: angiotensin II contraction in longitudinal ileac muscles; assay: Inhibitory activity to angiotensin II contraction in longitudinal ileac muscles excised from a guinea pig; assay type: cell-based, Hartley male guinea pig; settings: Cavia porcellus, 20 min; 50% contraction inhibition concentration; 10⁻⁸M angiotensin II; test compound reacted for 20 minutes; guinea pig ileum longitudinal muscle; read-out: IC₅₀
Method: (2) Inhibitory activity to angiotensin II contraction in longitudinal ileac muscles excised from a guinea pig
A Hartley male guinea pig (350-450 g in weight) was sacrificed under exsanguination, followed by the excision of its ileum.
A longitudinal muscle tissue (2 cm long) was prepared from the ileum in a manner known per se in the art. The sample was suspended in a 20-mℓ Magnus cylinder filled with a Tylode solution [composition (mM): NaCℓ 137, KCℓ 2.7, CaCℓ₂ 1.88, MgCℓ₂ 1.1, NaH₂PO₄ 0.4, NaH₂CO₃ 11.8 and glucose 5.6). The Tylode solution was incubated at 37°C and saturated with a mixed gas consisting of 95% O₂ + 5% CO₂. Using an isometric transducer ("TB-611T", manufactured by Nihon Kohden Corporation), variations in contraction were measured. The measurement results were recorded on a computer ("PC-9801", manufactured by NEC Corporation).
Under a load of 0.5 g initial tension, the longitudinal muscle sample was equilibrated in a nutrient solution for about one hour while being washed therewith at intervals of 15 minutes. Then, contracture by the administration of 80 mM of KCℓ was repeated twice. After conforming that the contraction occurred stably, the following test was conducted.
First, 10^-8M angiotensin II was administered to the sample and its maximum contraction was recorded. The test compound was then administered to the sample and they were reacted for 20 minutes. Administered again was 10⁻⁸M angiotensin II and the maximum contraction was measured. […] This test was repeated at increased concentrations of the test compound. A 50% contraction inhibition concentration (IC₅₀) was determined in accordance with a linear regressive calculation of the contraction inhibition rates.

Molecule CCc1nn(Cc2ccc(-c3ccccc3-c3nnn[nH]3)cc2)c(=NC(=O)C2CC2)s1 [Compound No.19, 2-Cyclopropylcarbonylimino-5-ethyl-3-[2'-(1H-tetrazol-5-yl)biphenyl-4-yl]methyl-1,3,4-thiadiazoline] has an IC50 [1] of 0.015 µM.

Molecule CCCc1sc(=NC(=O)C2CC2)n(Cc2ccc(-c3ccccc3-c3nnn[nH]3)cc2)c1C(=O)O [Compound No.244, 2-Cyclopropylcarbonylimino-3-[2'-(1H-tetrazol-5-yl)biphenyl-4-yl]methyl-5-n-propylthiazoline-4-carboxylic acid] has an IC50 [2] of 0.00076 µM.

Molecule CCCC(=O)N(Cc1ccc(-c2ccccc2-c2nn[nH]n2)cc1)c1nnc(CC)s1 [Compound No.2, 2-[N-Butyryl-N-(2'-(1H-tetrazol-5-yl)biphenyl-4-yl)methyl]amino-5-ethyl-1,3,4-thiadiazole] has an IC50 [1] of 0.013 µM and an IC50 [2] of 0.011 µM.

Work on CCCCc1nnc(N(Cc2ccc(-c3ccccc3-c3nn[nH]n3)cc2)C(=O)CCC)s1 [Compound No.14, 2-[N-Butyryl-N-(2'-(1H-tetrazol-5-yl)biphenyl-4-yl)methyl]amino-5-n-butyl-1,3,4-thiadiazole] yielded an IC50 [1] of 0.0098 µM and an IC50 [2] of 0.036 µM.

For CCc1nn(Cc2ccc(-c3ccccc3-c3nnn[nH]3)cc2)c(=NS(=O)(=O)c2ccccc2C(=O)OC)s1 [Compound No.151, 2-[[5-Ethyl-3-[2'-(1H-tetrazol-5-yl)biphenyl-4-yl]methyl-1,3,4-thiadiazoline-2-yliden]aminosulfonyl]benzoic acid methyl ester], the IC50 [2] was 0.0008 µM.

CCCCc1nn(Cc2ccc(-c3ccccc3-c3nnn[nH]3)cc2)c(=NC(=O)CC)s1 [Compound No.7, 2-Propionylimino-5-n-butyl-3-[2'-(1H-tetrazol-5-yl)biphenyl-4-yl]methyl-1,3,4-thiadiazoline] was tested, and the IC50 [1] was 0.0068 µM and the IC50 [2] was 0.021 µM.

Molecule O=C(O)c1ccccc1C(=O)N=c1sc(C2CC2)nn1Cc1ccc(-c2ccccc2-c2nnn[nH]2)cc1 [Compound No.137, N-[5-Cyclopropyl-3-[2'-(1H-tetrazol-5-yl)biphenyl-4-yl]methyl-1,3,4-thiadiazoline-2-yliden]phthalamic acid] has an IC50 [2] of 0.0009 µM.

Work on CCCCC(=O)N(Cc1ccc(-c2ccccc2-c2nn[nH]n2)cc1)c1nnc(C2CC2)s1 [Compound No.34, 2-[N-Valeryl-N-(2'-(1H-tetrazol-5-yl)biphenyl-4-yl)methyl]amino-5-cyclopropyl-1,3,4-thiadiazole] yielded an IC50 [1] of 0.01 µM.

With CCc1nn(Cc2ccc(-c3ccccc3-c3nnn[nH]3)cc2)c(=NC(=O)C(F)(F)F)s1 [Compound No.50, 2-Trifluoroacetylimino-5-ethyl-3-[2'-(1H-tetrazol-5-yl)biphenyl-4-yl]methyl-1,3,4-thiadiazoline] the IC50 [2] was 0.0049 µM.

In the case of O=C(N=c1sc(C2CC2)nn1Cc1ccc(-c2ccccc2-c2nn[nH]n2)cc1)C1CC1 [Compound No.23, 2-Cyclopropylcarbonylimino-5-cyclopropyl-3-[2'-(1H-tetrtazol-5-yl)biphenyl-4-yl]methyl-1,3,4-thiadiazoline], the IC50 [1] is reported as 0.031 µM.

CCCCC(=O)N=c1sc(CC)nn1Cc1ccc(-c2ccccc2-c2nnn[nH]2)cc1 [Compound No.31, 2-Valerylimino-5-ethyl-3-[2'-(1H-tetrazol-5-yl)biphenyl-4-yl]methyl-1,3,4-thiadiazoline] was tested, and the IC50 [1] was 0.017 µM.

In the case of CCCCc1nn(Cc2ccc(-c3ccccc3-c3nnn[nH]3)cc2)c(=NC(=O)CCC)s1 [Compound No.13, 2-Butyrylimino-5-n-butyl-3-[2'-(1H-tetrazol-5-yl)biphenyl-4-yl]methyl-1,3,4-thiadiazoline], the IC50 [1] is reported as 0.014 µM and the IC50 [2] is reported as 0.024 µM.

Molecule CCc1nn(Cc2ccc(-c3ccccc3-c3nnn[nH]3)cc2)c(=NC(=O)c2cscc2C(=O)O)s1 [Compound No.143, 4-[[5-Ethyl-3-[2'-(1H-tetrazol-5-yl)biphenyl-4-yl]methyl-1,3,4-thiadiazoline-2-yliden]aminocarbonyl] thiophene-3-carboxylic acid] has an IC50 [2] of 0.00064 µM.

Work on CCCC(=O)N=c1sc(CC)nn1Cc1ccc(-c2ccccc2-c2nnn[nH]2)cc1 [Compound No.1, 2-Butyrylimino-5-ethyl-3-[2'-(1H-tetrazol-5-yl)biphenyl-4-yl]methyl-1,3,4-thiadiazoline] yielded an IC50 [1] of 0.008 µM and an IC50 [2] of 0.023 µM.

O=C(O)C1=C(C(=O)N=c2sc(C3CC3)nn2Cc2ccc(-c3ccccc3-c3nn[nH]n3)cc2)CCC1 [Compound No.132, 2-[[5-Cyclopropyl-3-[2'-(1H-tetrazol-5-yl)biphenyl-4-yl]methyl-1,3,4-thiadiazoline-2-yliden]aminocarbonyl]-1-cyclopetenecarboxylic acid] was tested, and the IC50 [2] was 0.0004 µM.

CCc1nn(Cc2ccc(-c3ccccc3-c3nnn[nH]3)cc2)c(=NC(=O)c2c(F)ccc(F)c2C(=O)O)s1 [Compound No.139, 3,6-Difluoro-N-[5-Ethyl-3-[2'-(1H-tetrazol-5-yl)biphenyl-4-yl]methyl-1,3,4-thiadiazoline-2-yliden] phthalamic acid] showed an IC50 [2] of 0.0074 µM.

Molecule O=C(N=c1sc(-c2ccccc2)nn1Cc1ccc(-c2ccccc2-c2nnn[nH]2)cc1)C1CC1 [Compound No.27, 2-Cyclopropylcarbonylimino-5-phenyl-3-[2'-(1H-tetrazol-5-yl)biphenyl-4-yl]methyl-1,3,4-thiadiazoline] has an IC50 [2] of 0.01 µM.

CCCCC(=O)N(Cc1ccc(-c2ccccc2-c2nn[nH]n2)cc1)c1nnc(C)s1 [Compound No.30, 2-[N-Valeryl-N-(2'-(1H-tetrazol-5-yl)biphenyl-4-yl)methyl]amino-5-methyl-1,3,4-thiadiazole] showed an IC50 [2] of 0.029 µM.

Molecule CCc1nn(Cc2ccc(-c3ccccc3-c3nnn[nH]3)cc2)c(=NC(=O)c2ccccc2Cl)s1 [Compound No.68, 2-(2-Chlorobenzoyl)imino-5-ethyl-3-[2'-(1H-tetrazol-5-yl)biphenyl-4-yl]methyl-1,3,4-thiadiazoline] has an IC50 [1] of 0.0057 µM.

With CCCc1nn(Cc2ccc(-c3ccccc3-c3nnn[nH]3)cc2)c(=NC(=O)C2=C(C(=O)O)CCC2)s1 [Compound No.131, 2-[[5-n-Propyl-3-[2'-(1H-tetrazol-5-yl)biphenyl-4-yl]methyl-1,3,4-thiadiazoline-2-yliden]aminocarbonyl]-1-cyclopenten carboxylic acid] the IC50 [2] was 0.00084 µM.

For CCCC(=O)N=c1sc(C2CC2)nn1Cc1ccc(-c2ccccc2-c2nnn[nH]2)cc1 [Compound No.11, 2-Butyrylimino-5-cyclopropyl-3-[2'-(1H-tetrazol-5-yl)biphenyl-4-yl]methyl-1,3,4-thiadiazoline], the IC50 [1] was 0.0065 µM and the IC50 [2] was 0.026 µM.

CCCCc1sc(=NC(=O)C2CC2)n(Cc2ccc(-c3ccccc3-c3nnn[nH]3)cc2)c1C(=O)O [Compound No.245, 2-Cyclopropylcarbonylimino-3-[2'-(1H-tetrazol-5-yl)biphenyl-4-yl]methyl-5-n-butylthiazoline-4-carboxylic acid] was tested, and the IC50 [2] was 0.00035 µM.

In the case of CCCC(=O)N(Cc1ccc(-c2ccccc2-c2nn[nH]n2)cc1)c1nnc(C2CC2)s1 [Compound No.12, 2-[N-Butyryl-N-(2'-(1H-tetrazol-5-yl)biphenyl-4-yl)methyl]amino-5-cyclopropyl-1,3,4-thiadiazole], the IC50 [1] is reported as 0.032 µM and the IC50 [2] is reported as 0.028 µM.
